Data as given in patent US12509421B2, “Preparation and application of deuterated 4-phenyl-4-piperidinols” (priority 2022, dated 2025).
Structures can show the parent of a compound that is named as a salt. Where two headings read alike, the source gives them in different places.

Experiments:
[1] = target: T1, μOR (Homo sapiens, UniProt P35372); experiment: Opioid receptor competitive binding test, μOR; settings: [3H]-labeled ligand, CHO cell membranes, ± SD of three measurements; for μOR binding rate: compound at 10 μM
T1 construct: expressed in transfected cells; host or cells: CHO cells
Experimental: (§1) CHO cells expressing p opioid receptor, δ opioid receptor and K opioid receptor are cultured in a 10 cm^2 Petri dish (F-12 medium+10% newborn bovine serum) for several days, and the culture solution is sucked after the cells grew to the bottom of the dish. 3 ml PBS/EDTA solution (0.1M NaCl, 0.01M NaH2PO4, 0.04% EDTA) is added for digestion for 3-5 minutes. The cells are blown with a straw to get fall off completely, collected in a 40 ml centrifuge tube, centrifuged at 5000 rpm for 5 minutes, and removed with the supernatant. The centrifuge tube is added with ice-cold homogenate (50 mM HEPES PH 7.4, 3 mM MgCl2, 1 mM EGTA). The solution and precipitate are transferred to homogenizer for homogenization; Then the homogenate is transferred into a centrifuge tube, centrifuged at 18000 rpm for 15 minutes, and centrifuged twice; the obtained precipitate is added with an appropriate amount of buffer solution of 50 mM Tris-HCl and pH 7.4, homogenized and sub-packaged in centrifuge tubes. The product is stored in a refrigerator at −70° C. for later use.
(§2) 20-30 μg expressed membrane receptor protein and [3H]-labeled ligand (1-2 nM) are added to the total binding tube, added with 1 μM of corresponding ligand to the corresponding nonspecific binding tube. Various screened opioid ligand drugs (see the drug compounds in Table 1 below) are added to the sample tube with 100 μL final volume. The sample is incubated at 30° C. for 30 minutes, and the reaction is terminated in ice water. The glass fiber filter paper gF/C (whatman) is used for negative pressure filtration on Millipore sample collector. The sample is eluted with 4 ml 50 mm tris-HCl (pH 7.4) for three times, dried with the filter paper, put in 0.5 ml Eppendorf tube and added with 0.5 ml lipophilic scintillation liquid. The radioactive intensity is measured with PERKIN ELMER PRI-CARB 2910 liquid scintillation counter with calculation of the inhibition rate. The experiment is repeated for more than three times, with three compound tubes in each group. Inhibition rate(or binding rate)=(total binding rate dpm−sample tube dpm)/(total binding tube dpm-nonspecific binding tube dpm)×100%
(§3) IC50 is calculated with Prism 5.0 software. The Ki value is calculated according to the following formula: Ki=IC50/(1^+[L]/Kd), wherein [L] is the concentration of the added labeled ligand, and Kd is the equilibrium dissociation parameter of the labeled ligand.

[2] = target: T2, δOR (Homo sapiens, UniProt P41143); experiment: Opioid receptor competitive binding test, δOR; settings: [3H]-labeled ligand, CHO cell membranes, ± SD of three measurements; for δOR binding rate: compound at 10 μM
T2 construct: expressed in transfected cells; host or cells: CHO cells
Experimental: as §1, §2, §3

[3] = target: T3, κOR (Homo sapiens, UniProt P41145); experiment: Opioid receptor competitive binding test, κOR; settings: [3H]-labeled ligand, CHO cell membranes, ± SD of three measurements; for κOR binding rate: compound at 10 μM
T3 construct: expressed in transfected cells; host or cells: CHO cells
Experimental: as §1, §2, §3

[4] = system: Female Kunming mice; experiment: Hot plate analgesia test in mice; type: in vivo; settings: 55° C. hot plate
Experimental: Female Kunming mice weighing about 20 g are placed on a hot plate instrument preheated to 55° C., and the latency of licking hind feet or lifting hind feet is used as the pain threshold index. Animals are screened before the experiment, and animals with latency less than 5 s or more than 30 s are excluded. To prevent foot burns, the longest observation time is set to 60s. The basic pain threshold is the average of two measurements, and the interval between the two measurements is 5 minutes. The pain threshold of mice in each group is determined at 15 minutes, 30 minutes, 60 minutes and 120 minutes after intraperitoneal administration. The effective percentage of analgesia (% MPE) is calculated according to the following formula
[formula] According to the effective percentage of analgesia, the ED50 value is calculated by graphpad prism 5.0 software.

[5] = target: hERG potassium channel (Homo sapiens, UniProt Q12809); experiment: hERG potassium channel whole-cell patch clamp (HEK293); type: cell-based; design: expressed in transfected cells; host or cells: HEK293 cell line; settings: for IC50: HEK293 cells stably expressing hERG, whole-cell patch clamp, room temperature, read-out: Half-inhibition concentration of compounds to be tested on hERG (IC50)
Description: The rapidly activated potassium channel encoded by human ether-a-go-go-related gene (hERG) is an important ion channel involved in the formation of phase 3 repolarization of myocardial action potential. […] Drug-induced delayed ventricular repolarization may cause fatal arrhythmia-torsade de pointes in some cases. According to statistics, about 25-40% of the lead compounds show different degrees of hERG-related toxicity, and many drugs are withdrawn from the market because they may lead to the risk of QT interval extension. At present, National Medical Products Administration also requires hERG/IKr safety evaluation data before clinical trial application (IND) of new drugs under study. • 1. Whole-cell patch clamp technique is used to study the inhibitory effect of compounds on hERG potassium channels: • 1) the compound to be tested is stored with physiological saline prepared into 10 mM liquid. The test stock solution is diluted with physiological saline into 3 mM, 1 mM and 0.3 mM diluents in turn. […] The old culture medium removed and is washed once with PBS, then added with 1 mL TrypLE™ Express solution and incubated at 37° C. for about 0.5 minutes. When the cells are detached from the bottom of the dish, about 5 ml complete medium preheated is added at 37° C. The cell suspension is gently blown with a straw to separate the aggregated cells. The cell suspension is transferred to a sterile centrifuge tube and centrifuged at 1000 rpm for 5 minutes to collect cells. […] The clamping voltage is depolarized from −80 mV to −50 mV for 0.5 seconds (as leakage current detection), then stepped to 30 mV for 2.5 seconds, and then quickly recovered to −50 mV for 4 seconds, which can excite the tail current of hERG channel. Data are collected repeatedly every 10s to observe the effect of drugs on hERG tail current. 0.5 seconds-50 mV stimulation is used as leakage current detection. The test data are collected by IPA amplifier (Sutter Instrument) and stored in SutterPatch software.
Capillary glass tube is drawn into recording electrode by microelectrode drawing instrument. Under the inverted microscope, the microelectrode manipulator is operated to contact the recording electrode with the cell, and negative pressure suction is given to form a GΩ seal. After the GΩ seal is formed, rapid capacitance compensation is carried out, and then negative pressure is continuously applied to break the cell membrane, forming a whole cell recording mode. Then the slow capacitance is compensated and the film capacitance and series resistance are recorded. No leakage compensation is given.
When the hERG current recorded in the whole cell is stable, the drug is administered, and the next concentration is detected after each drug concentration acts for 5 minutes (or the current is stable), and multiple concentrations are detected for each test compound. The cover glass covered with cells is placed in the recording bath in an inverted microscope, and the test compound and the external liquid containing no compound flowed through the recording bath from low concentration to high concentration by gravity perfusion method, so as to act on the cells, and liquid exchange is carried out by using a vacuum pump during recording. The current detected by each cell in the external fluid without compounds is used as its own control group.
At least two cells are used to detect each concentration independently and repeatedly twice. All electrophysiological tests are conducted at room temperature.
Firstly, the current after each drug concentration and the blank control current are standardized
[formula] followed by the calculation of the inhibition rate
[formula] corresponding to each drug concentration, the average and standard deviation for each concentration, and the semi-inhibition concentration of each compound with the following equation: […]
The dose-dependent effect is nonlinear fitted by the above equation, and IC50 is semi-inhibitory concentration.

[6] = system: ICR mice; experiment: Evaluation of side effects of constipation (defecation time, number, weight); type: in vivo; settings: 7.5 mg/kg
Experimental: Constipation side effect is a common side effect of opioid drugs. This patent evaluates the possibility of constipation side effect by the influence of the compound on defecation time, defecation quantity and defecation weight of experimental animals.
ICR mice are randomly divided into 6 groups with 10 mice in each group after adaptive feeding. Fasting for 16-24 h, without stopping drinking, the blank control group is given solvent, during which the normal diet is: (1) the blank control group; (2) Compound diphenoxylate (7.5 mg/kg) group; (3) Low dose (1 mg/kg) group; (4) High dose (5 mg/kg) group of the compound to be tested.
After administration for 30 minutes, the mice in each group are given Chinese ink by gavage. After administration, the mice are kept in a single cage, and the excretion time of the first black stool is recorded. The number and weight (wet weight) of defecation particles in each mouse within 5 hours after administration are recorded. each group of mice are placed in an IVC cage with clean filter paper. The feces of each mouse are collected, put into a sterile 1.5 ml EP tube and stored in an ice box. During the collection, the number of defecation particles of each mouse is recorded, and the wet weight is weighed. After the collected feces are dried, the dry weight of the feces is recorded. Drying conditions: put fresh feces in an oven and bake at 100° C. for 5-10 minutes until the dry weight of feces is constant. The following formula is used to calculate the water content of feces, and the water content of feces (%)=(wet feces mass−dry feces mass)/wet feces mass×100%.
The data required for measurement and observation in this experiment are recorded in the corresponding table. All data are statistically processed by Microsoft Excel, and expressed as “mean standard error”. The data of each group are statistically analyzed by SPSS software package.

| Molecule | μOR binding rate [1] [%] | δOR binding rate [2] [%] | κOR binding rate [3] [%] | Maximum analgesic effective percentage (% MPE), hot plate ([4]; 10 mg/kg, intraperitoneal) [%] | other results |
| --- | --- | --- | --- | --- | --- |
| [2H]C([2H])([2H])Oc1cccc([C@]2(O)CCN(C(=O)Cc3cc(F)c(F)cc3F)C[C@H]2CN(C)C([2H])([2H])[2H])c1 [II-12hydrochloride] | 26.3 ± 1.2 | 12.0 ± 3.3 | 13.6 ± 1.9 | 100 | – |
| [2H]C([2H])([2H])N(CC1CN(S(=O)(=O)Cc2ccccc2)CCC1(O)c1cccc(OC)c1)C([2H])([2H])[2H] (centres unmarked) [I-4hydrochloride] | 25.9 ± 3.9 | 10.1 ± 0.6 | 18.5 ± 3.2 | 100 | hERG inhibition grade [5]: μM((Weak inhibition); IC50 [5]: 11000 nM |
| CN(C)C[C@@H]1CN(S(=O)(=O)Cc2ccccc2)CC[C@@]1(O)c1cccc(O)c1.Cl [Example 22 of CN201911076305.X, reference compound] | – | – | – | – | hERG inhibition grade ([5]; listed as Example 22 of patent CN201911076305.X, hydrochloride): moderate inhibitory effects on hERG; hERG inhibition grade ([5]; listed as example 22 of the prior art of CN201911076305.X, hydrochloride): μM(Moderate intensity inhibition) |
| [2H]C([2H])([2H])Oc1cccc([C@]2(O)CCN(S(=O)(=O)Cc3ccccc3)C[C@H]2CN(C)C([2H])([2H])[2H])c1 [II-6hydrochloride] | 28.4 ± 2.0 | 10.5 ± 1.7 | 14.5 ± 3.1 | – | ED50 ([4]; Mus musculus, ip, intraperitoneal): 0.79 mg/kg |
| (3R,4S)-1-(benzylsulfonyl)-4-(3-hydroxyphenyl)-3-(((methyl(methyl-d3)amino)methyl)-4-piperidinol [II-2hydrochloride] | – | – | – | – | Ki [1]: 0.12 nM; Ki [2]: 482 ± 28.4 nM; Ki [3]: 25.6 ± 2.72 nM; hERG inhibition grade [5]: μM((Weak inhibition); IC50 ([5]; listed as II-2): 25100 nM; IC50 ([5]; listed as Il-2hydrochloride): 14700 nM |
| COc1cccc(C2(O)CCCCC2CN(C)C)c1 (centres unmarked) [Tramadol, reference compound] | 6.0 ± 0.4 | 0 | 0 | – | Maximum analgesic effective percentage (% MPE), hot plate ([4]; 50 mg/kg dosage): 64.5% ((50 mg/kg/dosage) |
| [2H]C([2H])([2H])Oc1cccc(C2(O)CCN(C(=O)Cc3cc(F)c(F)cc3F)CC2CN(C)C([2H])([2H])[2H])c1 (centres unmarked) [I-6hydrochloride] | 21.0 ± 3.0 | 11.6 ± 1.7 | 20.5 ± 2.3 | 100 | – |
| CN(C)C[C@@H]1CN(S(=O)(=O)Cc2ccccc2)CC[C@@]1(O)c1cccc(O)c1.Cl [Example 22 of CN201911076305.X, (3R, 4S)-1-(benzylsulfonyl)-3-(dimethylamino)methyl)-4-(3-hydroxyphenyl)-4-piperidinol hydrochloride, reference compound] | – | – | – | – | Ki [1]: 0.17 nM; Ki [2]: 1100 ± 42 nM; Ki [3]: 33.7 ± 3.26 nM |
| [2H]C([2H])([2H])Oc1cccc(C2(O)CCN(S(=O)(=O)Cc3ccccc3)CC2CN(C)C([2H])([2H])[2H])c1 (centres unmarked) [I-2hydrochloride] | 24.75 ± 3.1 | 10.9 ± 1.2 | 23.8 ± 1.9 | 100 | – |
| CCOC(=O)C1(c2ccccc2)CCN(CCC(C#N)(c2ccccc2)c2ccccc2)CC1 [Diphenoxylate, reference compound] | – | – | – | – | Number of defecating animals ([6]; 10 mice per group, within 5 hours): 10; Defecation time ([6]; first black stool, x ± SE, only animals that defecate within 5 hours): 148.4 ± 7.9 min; water content of feces ([6]; only animals that defecate within 5 hours, x ± SE): 41.4 ± 3.7%; Fecal weight ([6]; within 5 hours, x ± SE): 0.3005 ± 0.0289 g |
